Laboratory results from ChEMBL document CHEMBL4673352, “Discovery of AZD4573, a Potent and Selective Inhibitor of CDK9 That Enables Short Duration of Target Engagement for the Treatment of Hematological Malignancies” (J Med Chem, 2020).
Values after ≈ are worked out from the molar mass of the structure shown.

Experiments:
[1] = Solubility of compound in pH 4 0.1 M acetate buffer using crystalline form of sample; type: physicochemical
[2] = Solubility of compound in pH 7.4 PBS buffer using crystalline form of sample; type: physicochemical
[3] = Intrinsic clearance in human cryopreserved hepatocytes assessed per million cells […]; type: ADME, cell-based, Hepatocyte; conditions: read-out: CLH
[4] = Solubility of compound in phosphate buffer at pH 7.4 using dried form of sample; type: physicochemical; conditions: phosphate buffer, read-out: solubility
[5] = Half-life in mouse at 5.2 umol/kg, iv formulated as solution; type: ADME, organism-based; conditions: in vivo, dose 5.2 µmol/kg
[6] = Half-life in Han Wistar rat at […], iv formulated as solution; type: ADME, organism-based; conditions: in vivo, dose 1.3 µmol/kg
[7] = Volume of distribution at steady state in Beagle dog at 5.2 umol/kg, iv administered as 0.25 hrs infusion; type: ADME, organism-based, Canis lupus familiaris; conditions: in vivo, dose 5.2 µmol/kg, read-out: Vdss
[8] = Clearance in Han Wistar rat plasma at […], iv formulated as solution; type: ADME, organism-based; conditions: dose 1.3 µmol/kg
[9] = Clearance in mouse plasma at 5.2 umol/kg, iv formulated as solution; type: ADME, organism-based; conditions: dose 5.2 µmol/kg
[10] = Intrinsic clearance in dog cryopreserved hepatocytes assessed per million cells […]; type: ADME, cell-based, Canis lupus familiaris, Hepatocyte; conditions: read-out: CLH
[11] = Intrinsic clearance in rat cryopreserved hepatocytes assessed per million cells […]; type: ADME, cell-based, Hepatocyte; conditions: cryopreserved hepatocytes, read-out: CLH
[12] = Intrinsic clearance in human liver microsome; type: ADME, microsomes; conditions: liver microsomes, read-out: CLH
[13] = Half-life in Beagle dog at 5.2 umol/kg, iv administered as 0.25 hrs infusion; type: ADME, organism-based, Canis lupus familiaris; conditions: in vivo, dose 5.2 µmol/kg
[14] = Volume of distribution at steady state in mouse at 5.2 umol/kg, iv formulated as solution; type: ADME, organism-based; conditions: in vivo, dose 5.2 µmol/kg, read-out: Vdss
[15] = Volume of distribution at steady state in Han Wistar rat at […], iv formulated as solution; type: ADME, organism-based; conditions: in vivo, dose 1.3 µmol/kg, read-out: Vdss
[16] = Intrinsic clearance in mouse cryopreserved hepatocytes assessed per million cells […]; type: ADME, cell-based, Hepatocyte; conditions: read-out: CLH
[17] = Lipophilicity, log D of compound in buffer/octanol at pH 7.4 by shake flask method; type: physicochemical
[18] = Clearance in Beagle dog plasma at 5.2 umol/kg, iv administered as 0.25 hrs infusion; type: ADME, organism-based, Canis lupus familiaris; conditions: dose 5.2 µmol/kg

solubility thermodynamic [1]: 24 µM (≈ 9.25 µg/mL) | solubility thermodynamic [2]: 7.5 µM (≈ 2.89 µg/mL) | hepatocyte CLint [3]: 1.4 µL/min/1e6 cells | solubility [4]: 33 µM (≈ 12.7 µg/mL) | half-life [5]: 15.6 min | half-life [6]: 13.2 min | Vd [7]: 0.62 L/kg | clearance [8]: 77 mL/min/kg | clearance [9]: 40 mL/min/kg | hepatocyte CLint [10]: 5.9 µL/min/1e6 cells | hepatocyte CLint [11]: 58 µL/min/1e6 cells | microsomal CLint [12]: 12 µL/min/mg | half-life [13]: 60 min | Vd [14]: 1.1 L/kg | Vd [15]: 1.3 L/kg | hepatocyte CLint [16]: 52 µL/min/1e6 cells | logD [17]: 3 | clearance [18]: 7.5 mL/min/kg
SMILES: COc1cc(F)ccc1-c1ccnc(NC(=O)[C@H]2CCC[C@@H](NC(C)=O)C2)c1
